Laboratory results: PubChem BioAssay (NCI)
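Compound exposure: 48 hours, 5 concentrations, 96-well plates. Abbreviation: GI50, concentration required for 50% inhibition of growth. At the TGI there is no net growth.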

How the values were obtained:
Assay in all cases: growth of human tumour cells (NCI), 48 h
[1] = system: CAKI-1 renal
[2] = system: LOX IMVI melanoma
[3] = system: MALME-3M melanoma
[4] = system: MCF7 breast
[5] = system: NCI-H23 lung
[6] = system: NCI-H522 lung
[7] = system: OVCAR-3 ovarian
[8] = system: SF-268 CNS
[9] = system: SF-539 CNS
[10] = system: SK-MEL-28 melanoma

Row | Compound | GI50 [1] [µM] | TGI [1] [µM] | GI50 [2] [µM] | TGI [2] [µM] | GI50 [3] [µM] | TGI [3] [µM] | GI50 [4] [µM] | TGI [4] [µM] | GI50 [5] [µM] | TGI [5] [µM] | GI50 [6] [µM] | TGI [6] [µM] | GI50 [7] [µM] | TGI [7] [µM] | GI50 [8] [µM] | TGI [8] [µM] | GI50 [9] [µM] | TGI [9] [µM] | GI50 [10] [µM] | TGI [10] [µM]
1 | C=C=[CH][Sn]([c]1ccccc1)([c]1ccccc1)[c]1ccccc1 | 1.74 | 4.29 | 1.43 | 2.87 | 1.74 | 3.57 | 1.41 | 2.81 | 1.58 | 3.47 | 1.36 | 2.85 | 1.54 | 4.61 | 1.69 | 3.66 | 2.08 | 4.34 | 1.71 | 3.34
2 | COc1ccc(-n2sc(=O)n(Cc3ccc(COC(=O)C(C)c4ccc(CC(C)C)cc4)cc3)c2=O)cc1 (stereo not given) | 1.36 | 5.37 | 0.943 | 1.9 | 1.04 | 2.3 | 1.82 | 9.54 | 5.72 | 14.1 | 0.994 | 2.25 | 0.821 | 1.52 | 5.82 | 12.2 | 5.12 | 10.9 | 3.02 | 9.53
3 | CCN1C(=O)N(CC)C2C1NN=c1s/c(=C\c3ccccc3)c(=O)n12 (stereo not given) | 0.0717 | > 100 | 0.194 | > 100 | 1.09 | > 100 | 0.0463 | > 100 | 0.544 | > 100 | 0.11 |  | 0.0561 | 0.354 | 0.771 | > 100 | 0.106 | 0.554 | > 49.1 | > 100
4 | CSc1ccc(C2=NN(C(=O)c3ccc(N)cc3)C(c3ccc(F)cc3)C2)cc1 (stereo not given) | 15.4 | 37.4 | 2.53 | 6.84 | 8.09 | 23 | 3.42 | 15.2 | 17.5 | 37.9 | 13.8 | 30.9 | 4.54 | 17.2 | 3.09 | 12.6 | 15.6 | 32.4 | 18.4 | 34.7
5 | CS[C@@]1(C(=O)Nc2ccc3[nH]nc(-c4ccc(OC(C)C)nc4)c3c2)CCN(CC(=O)N2CC=C(c3ccc(-c4ncn(C)n4)cc3)CC2)C1 | > 100 | > 100 | 0.204 | 8.28 | 0.0155 | 0.105 | 13.9 | > 100 | 0.16 | > 100 | > 51.2 | > 100 | > 100 | > 100 | > 100 | > 100 | > 100 | > 100 | 0.0293 | 0.441
6 | CON | > 100 | > 100 | > 100 | > 100 | > 100 | > 100 | > 100 | > 100 | > 100 | > 100 | > 100 | > 100 | > 100 | > 100 | > 100 | > 100 | > 100 | > 100 | > 100 | > 100
7 | COc1ccc(-c2cncn2-c2cc(OC)c(OC)c(OC)c2)cc1F | < 0.0197 | > 24.4 | < 0.01 | 64.9 | 49 | > 100 | < 0.01 | > 100 | 0.149 | > 100 | < 0.01 | 1.03 | 0.0219 | 22.2 | 0.0548 | > 100 | < 0.0232 |  | 0.0359 | > 100
8 | OC(c1ccccc1)c1c(-c2ccccc2)oc(-c2ccccc2)c1C(O)c1ccccc1 (stereo not given) |  | 30.4 |  | 25.2 |  | 25.4 |  | 16.6 |  | 23.3 |  | 11.1 |  | 18.7 |  | 25.5 |  | 30.5 |  | 27.9
9 | CN(C)CCOc1nc2ccccc2c2c1-c1ccc(Cl)cc1C2=O | 0.499 | 5.18 | 0.416 | 1.78 | 1.07 | 2.43 | 0.324 | 1.39 | 1.14 | 4.04 | 0.573 | 2.09 | 0.622 | 1.85 | 0.577 | 2.32 | 1.07 | 2.59 | 1.65 | 3.15
10 | Cc1sc(/N=C2/NC(=O)CS2)nc1-c1nc(/N=C2/NC(=O)CS2)sc1C | > 50 | > 50 | > 50 | > 50 |  |  | 19.7 | > 50 | > 50 | > 50 | > 50 | > 50 | > 50 | > 50 | 36.4 | > 50 | > 50 | > 50 | 26.7 | > 50
11 | CCN(CC)c1ccc2nc3c4ccccc4c(=NC(=O)c4ccccc4-c4c5ccc(N(CC)CC)cc5[o+]c5cc(N(CC)CC)ccc45)cc-3oc2c1 | 4.95 | 18.9 | 1.69 | 4.49 | 2.92 | 10.2 | 1.59 |  | 1.88 | 6.13 | 3.14 | 21.9 | 0.85 | 6.26 | 4.69 | 19.4 | 3.24 | 8.73 | 5.06 | 12.4
12 | CCc1ccccc1-n1c(N)c(C#N)c(-c2ccc(OC)c(OC)c2)c(C#N)c1=O | > 100 | > 100 | 23.6 | 92.2 | 17.4 | 40.4 | 16.9 | 33.5 | 17 | 33.3 | 19 | 44.8 | 17.3 | 33.1 | 16.2 | 31.6 | 15 | 28.3 | 20.1 | 41.8
